pKi: −log10 of the molar value. Read-outs that look alike come from different tables or passages of the source.
Assays:
D3 receptor = D3 receptor (Homo sapiens (Human), UniProt P35462); test: Radioligand binding assay ([3H]-spiperone) on membranes of HEK293 EBNA cells expressing human D3 receptor; settings: read-out: D3 Ki; human receptor in HEK293 EBNA cells; 0.5 nM [3H]-spiperone
Method: (§1) HEK293 EBNA cells were transiently transfected with expression plasmids encoding for the human D2 or D3 or for the human 5-HT2A receptor, respectively. The cells were harvested 48 h post-transfection, washed three times with cold PBS and stored at −80° C. prior to use. The pellet was suspended in cold 50 mM Tris-HCl buffer containing 10 mM EDTA (pH 7.4) and was homogenized with a Polytron (Kinematica AG, Basel, Switzerland) for 20-30 sec at 12.000 rpm. After centrifugation at 48.000×g for 30 min at 4° C., the pellet was resuspended in cold 10 mM Tris-HCl buffer containing 0.1 mM EDTA (pH 7.4), homogenized, and centrifuged as above. This pellet was further resuspended in a smaller volume of ice cold 10 mM Tris-HCl buffer containing 0.1 mM EDTA (pH 7.4) and homogenized with a Polytron for 20-30 sec at 12.000 rpm. The protein content of this homogenate was determined with the Bio-Rad (Bradford) Protein Assay (Biorad Laboratories GmbH, München, Germany) according to the instructions of the manufacturer using gamma globulin as the standard. This homogenate was stored at −80° C. in aliquots and thawed immediately prior to use.
(§2) Aliquots of membrane preparations were thawed at RT, resuspended in assay buffer (D2, D3: 50 mM Tris-HCl, 120 mM NaCl, 5 mM MgCl2, 1 mM EDTA, 5 mM KCl, 1.5 mM CaCl2, pH=7.4; 5-HT2A: 50 mM Tris-HCl, 10 mM MgCl2, 1 mM EGTA, pH=7.4), homogenized with a Polytron for 20-30 sec at 12.000 rpm and adjusted to a final concentration of approximately 7.5 μg protein/well (D2, D3) and 15 μg protein/well (5-HT2A), respectively.
(§3) The nonspecific binding was determined with equally composed reaction mixtures in the presence of 10 μM unlabelled spiperone. Per well 45 μl of Microscint 40 (Perkin Elmer, Schwerzenbach, Switzerland) was added, plates for sealed, shaken for 20 min and counted for 3 min on a Topcount Microplate Scintillation Counter (Can berra Packard SA, Ziirich, Switzerland) with quenching correction.
(§4) The CPM value for each duplicate of a concentration of competing compound was averaged (y1), then the % specific binding was calculated according to the equation (((y1−non-specific)/(total binding−non-specific))×100). Graphs were plotted with the % specific binding using XLfit, a curve fitting program that iteratively plots the data using Levenberg-Marquardt algorithm. The single site competition analysis equation used was y=A+((B−A)/(1+((x/C)D))), where y is the % specific binding, A is the minimum y, B is the maximum y, C is the IC50, x is the log 10 of the concentration of the competing compound and D is the slope of the curve (the Hill Coefficient). […] The affinity constant (K) was calculated using the Cheng-Prusoff equation Ki=(IC50/1+([L]/Kd), where [L] is the concentration of radioligand and Kd is the dissociation constant of the radioligand at the receptor as determined by the saturation isotherm.

D2 receptor = D2 receptor (Homo sapiens (Human), UniProt P14416); test: Radioligand binding assay ([3H]-spiperone) on membranes of HEK293 EBNA cells expressing human D2 receptor; settings: human receptor in HEK293 EBNA cells; 0.7 nM [3H]-spiperone
Sequence of D2 receptor (P14416 whole entry): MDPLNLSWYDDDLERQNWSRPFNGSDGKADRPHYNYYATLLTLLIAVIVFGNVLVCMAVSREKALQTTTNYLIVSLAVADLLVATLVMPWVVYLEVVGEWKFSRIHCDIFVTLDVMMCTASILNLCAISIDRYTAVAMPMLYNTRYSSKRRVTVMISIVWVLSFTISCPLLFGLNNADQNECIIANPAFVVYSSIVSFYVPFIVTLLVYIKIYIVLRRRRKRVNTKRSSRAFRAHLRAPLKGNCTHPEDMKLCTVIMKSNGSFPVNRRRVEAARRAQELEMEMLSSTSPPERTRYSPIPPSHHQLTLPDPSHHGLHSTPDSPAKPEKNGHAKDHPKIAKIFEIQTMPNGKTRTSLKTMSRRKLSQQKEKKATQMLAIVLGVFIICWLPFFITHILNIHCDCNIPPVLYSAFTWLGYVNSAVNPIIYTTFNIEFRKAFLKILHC

5-HT2A receptor = 5-HT2A receptor (Homo sapiens (Human), UniProt P28223); test: Radioligand binding assay ([3H]-ketanserin) on membranes of HEK293 EBNA cells expressing human 5-HT2A receptor; settings: read-out: 5HT2A Ki
Method: as §1, §2, §3, §4

[1] = human receptor in HEK293 EBNA cells, 1.1 nM [3H]-ketanserin

Sequence of D3 receptor (P35462 whole entry): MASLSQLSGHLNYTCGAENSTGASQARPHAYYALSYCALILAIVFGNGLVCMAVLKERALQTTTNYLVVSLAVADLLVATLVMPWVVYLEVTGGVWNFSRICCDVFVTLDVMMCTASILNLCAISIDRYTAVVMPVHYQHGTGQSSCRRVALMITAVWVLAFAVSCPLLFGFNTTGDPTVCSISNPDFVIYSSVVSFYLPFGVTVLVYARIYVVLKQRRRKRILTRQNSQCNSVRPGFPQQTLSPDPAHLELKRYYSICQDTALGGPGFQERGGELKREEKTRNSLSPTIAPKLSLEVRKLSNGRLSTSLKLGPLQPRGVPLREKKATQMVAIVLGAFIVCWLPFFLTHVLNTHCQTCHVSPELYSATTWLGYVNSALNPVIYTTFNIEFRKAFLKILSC

SMILES | pKi (D3 receptor) | pKi (D2 receptor) | pKi (5-HT2A receptor; [1]) | pKi (5-HT2A receptor)
O=C(CC1CC1)N[C@H]1CC[C@H](CCN2CCC(c3cccc4c3OCO4)CC2)CC1 [Example 8, Trans-N-{4-[2-(4-Benzo[1,3]dioxol-4-yl-piperidin-1-yl)-ethyl]-cyclohexyl}-2-cyclopropyl-acetamide] | 8.60 | 6.52 | 7.75 | 
CS(=O)(=O)N[C@H]1CC[C@H](CCN2CCC(c3cccc4c3OCO4)CC2)CC1 [Example 69, Trans-N-{4-[2-(4-Benzo[1,3]dioxol-4-yl-piperidin-1-yl)-ethyl]-cyclohexyl}-methanesulfonamide] | 7.98 | 6.38 | 7.50 | 
O=C(N[C@H]1CC[C@H](CCN2CCC(c3cccc4c3OCO4)CC2)CC1)N1CCc2ccccc21 [Example 74, 2,3-Dihydro-indole-1-carboxylic acid N-trans-{4-[2-(4-benzo[1,3]dioxol-4-yl-piperidin-1-yl)-ethyl]-cyclohexyl}-amide] | 8.29 | 6.64 |  | 7.60
COC1(C(=O)N[C@H]2CC[C@H](CCN3CCC(c4cccc5c4OCO5)CC3)CC2)CCCCC1 [Example 67, 1-Methoxy-cyclohexanecarboxylic acid-trans-N-{4-[2-(4-benzo[1,3]dioxol-4-yl-piperidin-1-yl)-ethyl]-cyclohexyl}-amide] | 7.41 | 6.71 | 7.94 | 
O=C(CC1CCCO1)N[C@H]1CC[C@H](CCN2CCC(c3cccc4c3OCO4)CC2)CC1 (stereo partly drawn) [Example 6, Trans-N-{4-[2-(4-Benzo[1,3]dioxol-4-yl-piperidin-1-yl)-ethyl]-cyclohexyl}-2-(tetrahydro-furan-2-yl)-acetamide] | 8.04 | 6.41 |  | 7.68
O=C(N[C@H]1CC[C@H](CCN2CCC(c3cccc4c3OCO4)CC2)CC1)[C@@H](O)C(F)(F)F [Example 39, Trans-(R)—N-{4-[2-(4-Benzo[1,3]dioxol-4-yl-piperidin-1-yl)-ethyl]-cyclohexyl}-3,3,3-trifluoro-2-hydroxy-propionamide] | 7.70 | 6.55 |  | 7.71
CCC(C)C(=O)N[C@H]1CC[C@H](CCN2CCC(c3cccc4c3OCO4)CC2)CC1 (stereo partly drawn) [Example 51, Trans-N-{4-[2-(4-Benzo[1,3]dioxol-4-yl-piperidin-1-yl)-ethyl]-cyclohexyl}-2-methyl-butyramide] | 7.86 | 6.45 |  | 7.60
O=C(CC1CCOCC1)N[C@H]1CC[C@H](CCN2CCC(c3cccc4c3OCO4)CC2)CC1 [Example 53, Trans-N-{4-[2-(4-Benzo[1,3]dioxol-4-yl-piperidin-1-yl)-ethyl]-cyclohexyl}-2-(tetrahydro-pyran-4-yl)-acetamide] | 8.06 | 6.45 | 7.53 | 
CS(=O)(=O)CC(=O)N[C@H]1CC[C@H](CCN2CCC(c3cccc4c3OCO4)CC2)CC1 [Example 55, Trans-N-{4-[2-(4-Benzo[1,3]dioxol-4-yl-piperidin-1-yl)-ethyl]cyclohexyl}-2-methanesulfonyl-acetamide] | 8.33 | 6.78 | 7.57 | 
C[C@@H](O)C(=O)N[C@H]1CC[C@H](CCN2CCC(c3cccc4c3OCO4)CC2)CC1 [Example 64, (R)-trans-N-{4-[2-(4-Benzo[1,3]dioxol-4-yl-piperidin-1-yl)-ethyl]-cyclohexyl}-2-hydroxy-propionamide] | 7.96 | 6.57 | 7.97 | 
CCC(=O)N[C@H]1CC[C@H](CCN2CCC(c3cccc4c3OCO4)CC2)CC1 [Example 7, Trans-N-{4-[2-(4-Benzo[1,3]dioxol-4-yl-piperidin-1-yl)-ethyl]-cyclohexyl}-propionamide] | 8.38 | 6.69 | 7.78 | 
O=C(N[C@H]1CC[C@H](CCN2CCC(c3cccc4c3OCO4)CC2)CC1)C1(O)CC1 [Example 49, 1-Hydroxy-cyclopropanecarboxylic acid-trans-{4-[2-(4-benzo[1,3]dioxol-4-yl-piperidin-1-yl)-ethyl]-cyclohexyl}-amide] | 8.22 | 6.61 |  | 8.09
Cc1ccc(C(=O)N[C@H]2CC[C@H](CCN3CCC(c4cccc5c4OCO5)CC3)CC2)cn1 [Example 15, Trans-N-{4-[2-(4-Benzo[1,3]dioxol-4-yl-piperidin-1-yl)-ethyl]-cyclohexyl}-6-methyl-nicotinamide] | 7.93 | 6.87 | 7.94 | 
O=C(CO)N[C@H]1CC[C@H](CCN2CCC(c3cccc4c3OCO4)CC2)CC1 [Example 65, Trans-N-{4-[2-(4-Benzo[1,3]dioxol-4-yl-piperidin-1-yl)-ethyl]-cyclohexyl}-2-hydroxy-acetamide] | 8.04 | 6.53 | 7.67 | 
Cn1cnc(S(=O)(=O)N[C@H]2CC[C@H](CCN3CCC(c4cccc5c4OCO5)CC3)CC2)c1 [Example 72, 1-Methyl-1H-imidazole-4-sulfonic acid-trans-N-{4-[2-(4-benzo[1,3]dioxol-4-yl-piperidin-1-yl)-ethyl]-cyclohexyl}-amide] | 7.91 | 6.94 | 7.19 | 
O=C(CC(F)(F)F)N[C@H]1CC[C@H](CCN2CCC(c3cccc4c3OCO4)CC2)CC1 [Example 10, Trans-N-{4-[2-(4-Benzo[1,3]dioxol-4-yl-piperidin-1-yl)-ethyl]-cyclohexyl}-3,3,3-trifluoro-propionamide] | 8.40 | 6.68 | 7.74 | 
COCCC(=O)N[C@H]1CC[C@H](CCN2CCC(c3cccc4c3OCO4)CC2)CC1 [Example 2, Trans-N-{4-[2-(4-Benzo[1,3]dioxol-4-yl-piperidin-1-yl)-ethyl]-cyclohexyl}-3-methoxy-propionamide] | 8.24 | 6.37 | 7.42 | 
CN(C)S(=O)(=O)N[C@H]1CC[C@H](CCN2CCC(c3cccc4c3OCO4)CC2)CC1 [Example 78, Trans-N-{4-[2-(4-benzo[1,3]dioxol-4-yl-piperidin-1-yl)-ethyl]-cyclohexyl}-N,N-dimethyl-sulfamide] | 7.94 | 6.64 | 7.68 | 
O=C(CCC(F)(F)F)N[C@H]1CC[C@H](CCN2CCC(c3cccc4c3OCO4)CC2)CC1 [Example 11, Trans-N-{4-[2-(4-Benzo[1,3]dioxol-4-yl-piperidin-1-yl)-ethyl]-cyclohexyl}-4,4,4-trifluoro-butyramide] | 8.11 | 6.39 | 7.50 | 
CO[C@@H](C)C(=O)N[C@H]1CC[C@H](CCN2CCC(c3cccc4c3OCO4)CC2)CC1 [Example 33, Trans-(S)—N-{4-[2-(4-Benzo[1,3]dioxol-4-yl-piperidin-1-yl)-ethyl]-cyclohexyl}-2-methoxy-propionamide] | 7.30 | 6.33 | 7.54 | 
O=C(C[C@@H]1CCCO1)N[C@H]1CC[C@H](CCN2CCC(c3cccc4c3OCO4)CC2)CC1 [Example 17, Trans-N-{4-[2-(4-Benzo[1,3]dioxol-4-yl-piperidin-1-yl)-ethyl]-cyclohexyl}-2-(S)-tetrahydro-furan-2-yl-acetamide] | 8.19 | 6.27 |  | 7.47
O=C(CC1(O)CCOCC1)N[C@H]1CC[C@H](CCN2CCC(c3cccc4c3OCO4)CC2)CC1 [Example 31, Trans-N-{4-[2-(4-Benzo[1,3]dioxol-4-yl-piperidin-1-yl)-ethyl]-cyclohexyl}-2-(4-hydroxy-tetrahydro-pyran-4-yl)-acetamide] | 8.15 | 6.51 | 7.60 | 
O=C(N[C@H]1CC[C@H](CCN2CCC(c3cccc4c3OCO4)CC2)CC1)C(O)C(F)(F)F (stereo partly drawn) [Example 12, Trans-N-{4-[2-(4-Benzo[1,3]dioxol-4-yl-piperidin-1-yl)-ethyl]-cyclohexyl}-3,3,3-trifluoro-2-hydroxy-propionamide] | 8.07 | 6.63 |  | 7.85
CCOCCC(=O)N[C@H]1CC[C@H](CCN2CCC(c3cccc4c3OCO4)CC2)CC1 [Example 44, Trans-N-{4-[2-(4-Benzo[1,3]dioxol-4-yl-piperidin-1-yl)-ethyl]-cyclohexyl}-3-ethoxy-propionamide] | 8.14 | 6.41 | 7.26 | 
O=C(N[C@H]1CC[C@H](CCN2CCC(c3cccc4c3OCO4)CC2)CC1)C1CCOC1 (stereo partly drawn) [Example 47, Tetrahydro-furan-3-carboxylic acid-trans-{4-[2-(4-benzo[1,3]dioxol-4-yl-piperidin-1-yl)-ethyl]-cyclohexyl}-amide] | 8.12 | 6.78 | 7.62 | 
CC(C)C(=O)N[C@H]1CC[C@H](CCN2CCC(c3cccc4c3OCO4)CC2)CC1 [Example 23, Trans-N-{4-[2-(4-Benzo[1,3]dioxol-4-yl-piperidin-1-yl)-ethyl]-cyclohexyl}-isobutyramide] | 8.08 | 6.40 |  | 7.77
CCCC(=O)N[C@H]1CC[C@H](CCN2CCC(c3cccc4c3OCO4)CC2)CC1 [Example 25, Trans-N-{4-[2-(4-Benzo[1,3]dioxol-4-yl-piperidin-1-yl)-ethyl]-cyclohexyl}-butyramide] | 8.24 | 6.56 | 7.45 | 
N#CCC(=O)N[C@H]1CC[C@H](CCN2CCC(c3cccc4c3OCO4)CC2)CC1 [Example 20, Trans-N-{-4-[2-(4-Benzo[1,3]dioxol-4-yl-piperidin-1-yl)-ethyl]-cyclohexyl}-2-cyano-acetamide] | 8.51 | 6.69 |  | 7.65
O=C(N[C@H]1CC[C@H](CCN2CCC(c3cccc4c3OCO4)CC2)CC1)c1ccc(N2CCOCC2)cc1 [Example 56, Trans-N-{-4-[2-(4-Benzo[1,3]dioxol-4-yl-piperidin-1-yl)-ethyl]-cyclohexyl}-4-morpholin-4-yl-benzamide] | 8.00 | 6.23 | 7.73 | 

— patent US8598357B2, “Benzodioxole piperidine compounds” (Hoffmann-La Roche Inc., priority 2011, dated 2013)
